What was measured:
Assay type in all cases: in vivo
[1] = system: pigweed (Amaranthus retroflexus); test: Test C pre-/postemergence: pigweed
How it was run: (§1)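 Visual injury scored 0–100 (100 = complete control) against untreated controls after 13–15 greenhouse days. Surfactant-containing solvent formulations applied either to soil after sowing (loam/sand) or over 1- to 4-leaf plants, 2–18 cm tall.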

soybean (Glycine max) = test: Test C pre-/postemergence: soybean
How it was run: as §1

[2] = system: wheat (Triticum aestivum); test: Test A pre-/postemergence: wheat
How it was run: (§2)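 Injury was scored visually on a 0 (no effect) to 100 (complete control) scale versus untreated controls roughly ten days after treatment in the greenhouse. Compounds, formulated in surfactant-containing non-phytotoxic solvent, went on as soil-directed preemergence spray or postemergence to one- to two-leaf plants 2–10 cm tall.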

[3] = system: large crabgrass (Digitaria sanguinalis); test: Test C pre-/postemergence: large crabgrass
How it was run: as §1

[4] = system: morningglory (Ipomoea spp.); test: Test A pre-/postemergence: morningglory
How it was run: as §2

[5] = system: barnyardgrass (Echinochloa crus-galli); test: Test A pre-/postemergence: barnyardgrass; settings: Postemergence, 0 to 100 scale, 0 is no effect, 100 is complete control; for Plant response rating, Barnyardgrass: 125 g ai/ha; for Barnyardgrass plant response rating: 500 g ai/ha
How it was run: as §2

corn (Zea mays) = test: Test A pre-/postemergence: corn
How it was run: as §2

[6] = system: blackgrass (Alopecurus myosuroides); test: Test C pre-/postemergence: blackgrass
How it was run: as §1

[7] = system: johnsongrass (Sorghum halepense); test: Test C pre-/postemergence: johnsongrass
How it was run: as §1

[8] = system: nutsedge, yellow (yellow nutsedge, Cyperus esculentus); test: Test C pre-/postemergence: nutsedge, yellow
How it was run: as §1

[9] = system: ryegrass, Italian (Italian ryegrass, Lolium multiflorum); test: Test C pre-/postemergence: ryegrass, Italian
How it was run: as §1

[10] = Postemergence, 31 g ai/ha, scale 0 to 100 (0 no effect, 100 complete control)
[11] = Postemergence, 62 g ai/ha, scale 0 to 100 (0 no effect, 100 complete control)
[12] = Postemergence, 125 g ai/ha, scale 0 to 100, 0 no effect, 100 complete control
[13] = Postemergence, 250 g ai/ha, scale 0 to 100 (0 no effect, 100 complete control)
[14] = Preemergence, 31 g ai/ha, scale 0 (no effect) to 100 (complete control)
[15] = Preemergence, 62 g ai/ha, scale of 0 to 100, 0 is no effect, 100 is complete control
[16] = Preemergence, 125 g ai/ha, scale 0 to 100, 0 no effect, 100 complete control
[17] = Preemergence, 250 g ai/ha, scale 0 to 100, 0 no effect, 100 complete control
[18] = Postemergence, 125 g ai/ha, 0 to 100 scale, 0 is no effect, 100 is complete control
[19] = Postemergence, 500 g ai/ha, 0 to 100 scale, 0 is no effect, 100 is complete control
[20] = Preemergence, 125 g ai/ha, 0 to 100 scale where 0 is no effect and 100 is complete control
[21] = Preemergence, 500 g ai/ha, 0 to 100 scale (0 no effect, 100 complete control)
[22] = Postemergence, 250 g ai/ha, scale 0 to 100

Compound: CCCc1nn(-c2ccc(C(F)(F)F)cc2)nc1Oc1ccnc(C(F)(F)F)c1 [Compound 170]
- Plant response rating, Pigweed [1, 10]: 100
- Plant response rating, Pigweed [1, 11]: 100
- Plant response rating, Pigweed [1, 12]: 100
- Plant response rating, Pigweed [1, 13]: 100
- Plant response rating, Pigweed [1, 14]: 100
- Plant response rating, Pigweed [1, 15]: 100
- Plant response rating, Pigweed [1, 16]: 100
- Plant response rating, Pigweed [1, 17]: 100
- Plant response rating, Soybean (soybean (Glycine max); [10]): 30
- Plant response rating, Soybean (soybean (Glycine max); [11]): 70
- Plant response rating, Soybean (soybean (Glycine max); [12]): 90
- Plant response rating, Soybean (soybean (Glycine max); [14]): 5
- Plant response rating, Soybean (soybean (Glycine max); [15]): 5
- Plant response rating, Soybean (soybean (Glycine max); [16]): 20
- Plant response rating, Soybean (soybean (Glycine max); [17]): 45
- Plant response rating, Wheat [2, 18]: 40
- Wheat plant response rating [2, 19]: 50
- Plant response rating, Wheat [2, 20]: 60
- Plant response rating, Wheat [2, 21]: 80
- Plant response rating, Crabgrass, Large [3, 10]: 30
- Plant response rating, Crabgrass, Large [3, 11]: 30
- Plant response rating, Crabgrass, Large [3, 12]: 80
- Plant response rating, Crabgrass, Large [3, 22]: 90
- Plant response rating, Crabgrass, Large [3, 14]: 100
- Plant response rating, Crabgrass, Large [3, 15]: 100
- Plant response rating, Crabgrass, Large [3, 16]: 100
- Plant response rating, Crabgrass, Large [3, 17]: 100
- Plant response rating, Morningglory [4, 18]: 100
- Morningglory plant response rating [4, 19]: 100
- Plant response rating, Morningglory [4, 20]: 70
- Plant response rating, Morningglory [4, 21]: 90
- Plant response rating, Barnyardgrass [5]: 90
- Barnyardgrass plant response rating [5]: 90
- Plant response rating, Corn (corn (Zea mays); [18]): 30
- Corn plant response rating (corn (Zea mays); [19]): 50
- Plant response rating, Corn (corn (Zea mays); [20]): 30
- Plant response rating, Corn (corn (Zea mays); [21]): 40
- Plant response rating, Blackgrass [6, 10]: 10
- Plant response rating, Blackgrass [6, 11]: 10
- Plant response rating, Blackgrass [6, 12]: 60
- Plant response rating, Blackgrass [6, 22]: 70
- Plant response rating, Blackgrass [6, 14]: 90
- Plant response rating, Blackgrass [6, 15]: 95
- Plant response rating, Blackgrass [6, 16]: 100
- Plant response rating, Blackgrass [6, 17]: 100
- Plant response rating, Johnsongrass [7, 10]: 20
- Plant response rating, Johnsongrass [7, 11]: 25
- Plant response rating, Johnsongrass [7, 12]: 80
- Plant response rating, Johnsongrass [7, 13]: 98
- Plant response rating, Johnsongrass [7, 14]: 50
- Plant response rating, Johnsongrass [7, 15]: 75
- Plant response rating, Johnsongrass [7, 16]: 95
- Plant response rating, Johnsongrass [7, 17]: 95
- Plant response rating, Nutsedge, Yellow [8, 10]: 5
- Plant response rating, Nutsedge, Yellow [8, 11]: 5
- Plant response rating, Nutsedge, Yellow [8, 12]: 5
- Plant response rating, Nutsedge, Yellow [8, 13]: 10
- Plant response rating, Nutsedge, Yellow [8, 14]: 0
- Plant response rating, Nutsedge, Yellow [8, 15]: 5
- Plant response rating, Nutsedge, Yellow [8, 17]: 5
- Plant response rating, Ryegrass, Italian [9, 10]: 15
- Plant response rating, Ryegrass, Italian [9, 11]: 35
- Plant response rating, Ryegrass, Italian [9, 12]: 35
- Plant response rating, Ryegrass, Italian [9, 13]: 70
- Plant response rating, Ryegrass, Italian [9, 14]: 55
- Plant response rating, Ryegrass, Italian [9, 15]: 90
- Plant response rating, Ryegrass, Italian [9, 16]: 95
- Plant response rating, Ryegrass, Italian [9, 17]: 95

Compound: CCc1nn(-c2ccc(F)c(F)c2)nc1Oc1ccnc(C(F)(F)F)c1 [Compound 171]
- Plant response rating, Pigweed [1, 10]: 70
- Plant response rating, Pigweed [1, 11]: 90
- Plant response rating, Pigweed [1, 12]: 90
- Plant response rating, Pigweed [1, 13]: 98
- Plant response rating, Pigweed [1, 14]: 60
- Plant response rating, Pigweed [1, 15]: 100
- Plant response rating, Pigweed [1, 16]: 100
- Plant response rating, Pigweed [1, 17]: 100
- Plant response rating, Soybean (soybean (Glycine max); [10]): 25
- Plant response rating, Soybean (soybean (Glycine max); [11]): 35
- Plant response rating, Soybean (soybean (Glycine max); [12]): 40
- Plant response rating, Soybean (soybean (Glycine max); [14]): 0
- Plant response rating, Soybean (soybean (Glycine max); [15]): 0
- Plant response rating, Soybean (soybean (Glycine max); [16]): 5
- Plant response rating, Wheat [2, 18]: 30
- Wheat plant response rating [2, 19]: 40
- Plant response rating, Wheat [2, 20]: 10
- Plant response rating, Wheat [2, 21]: 60
- Plant response rating, Crabgrass, Large [3, 10]: 15
- Plant response rating, Crabgrass, Large [3, 11]: 20
- Plant response rating, Crabgrass, Large [3, 12]: 40
- Plant response rating, Crabgrass, Large [3, 22]: 55
- Plant response rating, Crabgrass, Large [3, 14]: 85
- Plant response rating, Crabgrass, Large [3, 15]: 100
- Plant response rating, Crabgrass, Large [3, 16]: 100
- Plant response rating, Crabgrass, Large [3, 17]: 100
- Plant response rating, Morningglory [4, 18]: 100
- Morningglory plant response rating [4, 19]: 100
- Plant response rating, Morningglory [4, 20]: 50
- Plant response rating, Morningglory [4, 21]: 60
- Plant response rating, Barnyardgrass [5]: 80
- Barnyardgrass plant response rating [5]: 90
- Plant response rating, Corn (corn (Zea mays); [18]): 20
- Corn plant response rating (corn (Zea mays); [19]): 30
- Plant response rating, Corn (corn (Zea mays); [20]): 10
- Plant response rating, Corn (corn (Zea mays); [21]): 30
- Plant response rating, Blackgrass [6, 10]: 5
- Plant response rating, Blackgrass [6, 11]: 10
- Plant response rating, Blackgrass [6, 12]: 10
- Plant response rating, Blackgrass [6, 22]: 30
- Plant response rating, Blackgrass [6, 14]: 5
- Plant response rating, Blackgrass [6, 15]: 98
- Plant response rating, Blackgrass [6, 16]: 100
- Plant response rating, Blackgrass [6, 17]: 100
- Plant response rating, Johnsongrass [7, 10]: 15
- Plant response rating, Johnsongrass [7, 11]: 15
- Plant response rating, Johnsongrass [7, 12]: 25
- Plant response rating, Johnsongrass [7, 13]: 25
- Plant response rating, Johnsongrass [7, 14]: 0
- Plant response rating, Johnsongrass [7, 15]: 25
- Plant response rating, Johnsongrass [7, 16]: 75
- Plant response rating, Johnsongrass [7, 17]: 95
- Plant response rating, Nutsedge, Yellow [8, 10]: 5
- Plant response rating, Nutsedge, Yellow [8, 11]: 5
- Plant response rating, Nutsedge, Yellow [8, 12]: 10
- Plant response rating, Nutsedge, Yellow [8, 13]: 10
- Plant response rating, Nutsedge, Yellow [8, 14]: 0
- Plant response rating, Nutsedge, Yellow [8, 15]: 0
- Plant response rating, Nutsedge, Yellow [8, 16]: 0
- Plant response rating, Nutsedge, Yellow [8, 17]: 0
- Plant response rating, Ryegrass, Italian [9, 10]: 5
- Plant response rating, Ryegrass, Italian [9, 11]: 5
- Plant response rating, Ryegrass, Italian [9, 12]: 10
- Plant response rating, Ryegrass, Italian [9, 13]: 10
- Plant response rating, Ryegrass, Italian [9, 14]: 10
- Plant response rating, Ryegrass, Italian [9, 15]: 50
- Plant response rating, Ryegrass, Italian [9, 16]: 60
- Plant response rating, Ryegrass, Italian [9, 17]: 100
